In patent publication US9763991B2, “Composition for the treatment of neurobehavioral disorders” (Cannabis Science International Holding B.V., priority 2013, dated 2017):

Legend:
C57BL6 mice [1] = test: Sleep monitoring after oral dosing (gavage) of Cannabinol in olive oil; format: in vivo, mouse; details: all 5 doses (0.01-0.5 mg/Kg) by oral gavage in olive oil, single administration at 3 consecutive days, vs pure olive oil
Method: (§1) The experiment is designed to test a range of concentrations around the equivalent previously tested in humans for single-dose kinetics. Animal experiments were performed following the directive 2010/63/EU on the protection of animals used for scientific purposes.
(§2) 6 groups of 5-6 male C57BL6 of approximately 28 g body weight (range 27-30 g) with the use of one cage for 3 mice: Group 0: Pure Olive Oil, Group 1: CBN at 0.01 mg/Kg body weight, Group 2: CBN at 0.05 mg/Kg body weight, Group 3: CBN at 0.1 mg/Kg body weight, Group 4: CBN at 0.25 mg/Kg body weight and Group 5: CBN at 0.50 mg/Kg body weight
Solutions (named CBN 0, CBN 1, CBN 2, CBN 3, CBN 4, CBN 5, Pure Olive Oil) having different cannabinol concentrations dissolved in olive oil were prepared in sterile conditions, under a laminar flood hood. Pure olive oil was used as a negative control.
The volume that can be administered to the animal should not exceed 10 ml/kg. For a mouse of 20 g the maximum volume corresponds to 0.2 ml. For this procedure a volume of 0.1 ml will be used (half of the maximum volume). 1 ml of each stock solution (cannabinol, CBN 1-5 and pure olive oil, POO) was dispensed into Falcon vials. Prior to the administration, the weight of each mouse was recorded and the appropriate amount of cannabinol solution was determined. […]

C57BL6 mice [2] = test: Safety data, body weight and organ weight after oral dosing (gavage) of Cannabinol; format: in vivo, mouse
Method: as §1, §2
The volume that can be administered to the animal should not exceed 10 ml/kg. For a mouse of 20 g the maximum volume corresponds to 0.2 ml. For this procedure a volume of 0.1 ml will be used (half of the maximum volume). 1 ml of each stock solution (cannabinol, CBN 1-5 and pure olive oil, POO) was dispensed into Falcon vials. Prior to the administration, the weight of each mouse was recorded and the appropriate amount of cannabinol solution was determined. For the POO group always 0.1 ml was dispensed in 6 an eppendorf vessel, for the other experimental groups transfer the amounts of CBN 1-5 and POO according to table 2 were used in an eppendorf vial. The amounts to be administered were adjusted depending on mouse group and individual weights.
Monitor the animal for potential complications: Esophagitis (inflammation of the oesophagus), perforation of the oesophagus or trachea, damage to the cardiac sphincter (upper stomach sphincter) insertion of needle and solution into the lungs, lung perforation, damage to the oral cavity, aspiration of solution into the lungs from regurgitation, traumatic injuries related to improper restrain.
The mean weights (and standard deviations) of spleen, liver and kidney from all mice groups at sacrifice are monitored.

**Q.** For CCCCCc1cc(O)c2c(c1)OC(C)(C)c1ccc(C)cc1-2 [Cannabinol], which “number of mice sleeping 30 minutes after administration” value (C57BL6 mice [1]) is on record?
**A.** Its value is “increased significantly”.

**Q.** And the “aggressive behaviour and clinical alterations (tremors)” value (C57BL6 mice [2]; 0.01-0.5 mg/Kg daily by oral gavage, male C57BL6 mice)?
**A.** Its value is “No presence of aggressive behaviour, neither evident clinical alterations”.

**Q.** What about the “liver and kidney weights at sacrifice” value (C57BL6 mice [2]; among experimental groups, 0.01-0.5 mg/Kg oral) of the same molecule?
**A.** Its value is “No significant changes”.

**Q.** And the body weight change (C57BL6 mice [2]; within experimental groups with time or among groups at fixed time, 0.01-0.5 mg/Kg oral)?
**A.** Its body weight change is “No significant changes”.
